Data from PubChem BioAssay AID2060623 (Molecular Pharmacology Branch, DTP, NCI, 2025).

System: 227483-062-R1-J1-PDC complex spheroids with HUVEC/MSC, viability
Test: Anticancer human tumor 227483-062-R1-J1-PDC patient-derived pancreatic carcinoma cell line growth inhibition [CLK]
Conditions: for IC50: curve of first compound; for viability, T/C: stronger effect = lower value
Method in brief: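 Patient-derived tumor cells grown as complex spheroids with HUVEC endothelial cells and mesenchymal stem cells, treated with drug combinations. Concentrations descend in half-log steps from near clinical Cmax, or from 10 microM if Cmax unknown.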

[1] = second compound 0.0316 µM, first compound 0.0316 µM
[2] = second compound 0.0316 µM, first compound 0.1 µM
[3] = second compound 0.0316 µM, first compound 0.316 µM
[4] = second compound 0.0316 µM, first compound 1 µM
[5] = second compound 0.1 µM, first compound 0.0316 µM
[6] = second compound 0.1 µM, first compound 0.1 µM
[7] = second compound 0.1 µM, first compound 0.316 µM
[8] = second compound 0.1 µM, first compound 1 µM
[9] = second compound 0.316 µM, first compound 0.0316 µM
[10] = second compound 0.316 µM, first compound 0.1 µM
[11] = second compound 0.316 µM, first compound 0.316 µM
[12] = second compound 0.316 µM, first compound 1 µM
[13] = second compound 1 µM, first compound 0.0316 µM
[14] = second compound 1 µM, first compound 0.1 µM
[15] = second compound 1 µM, first compound 0.316 µM
[16] = second compound 1 µM, first compound 1 µM
[17] = second compound 3.16 µM, first compound 0.0316 µM
[18] = second compound 3.16 µM, first compound 0.1 µM
[19] = second compound 3.16 µM, first compound 0.316 µM
[20] = second compound 3.16 µM, first compound 1 µM
[21] = second compound 10 µM, first compound 0.0316 µM
[22] = second compound 10 µM, first compound 0.1 µM
[23] = second compound 10 µM, first compound 0.316 µM
[24] = second compound 10 µM, first compound 1 µM
[25] = second compound 0.0316 µM, first compound 0.00316 µM
[26] = second compound 0.0316 µM, first compound 0.01 µM
[27] = second compound 0.1 µM, first compound 0.00316 µM
[28] = second compound 0.1 µM, first compound 0.01 µM
[29] = second compound 0.316 µM, first compound 0.00316 µM
[30] = second compound 0.316 µM, first compound 0.01 µM
[31] = second compound 1 µM, first compound 0.00316 µM
[32] = second compound 1 µM, first compound 0.01 µM
[33] = second compound 3.16 µM, first compound 0.00316 µM
[34] = second compound 3.16 µM, first compound 0.01 µM
[35] = second compound 10 µM, first compound 0.00316 µM
[36] = second compound 10 µM, first compound 0.01 µM
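Also: spheroids exposed to compounds for seven days before readout.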
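For viability, T/C in this document: percent of DMSO vehicle control luminescence as 100% viability.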

With `C=CC(=O)Nc1cc(Nc2nccc(-c3cn(C)c4ccccc34)n2)c(OC)cc1N(C)CCN(C)C` + CNC(=O)c1ccc(Nc2nc(OC3CCCC3)c3c(-c4ccc5nc(C)oc5c4)c[nH]c3n2)c(OC)c1 the IC50 (second compound 0.0316 µM) was greater than 300 nM, the IC50 (second compound 0.1 µM) was greater than 300 nM and the IC50 (second compound 0.316 µM) was greater than 300 nM. It also gave an IC50 (second compound 1 µM) greater than 300 nM, an IC50 (second compound 3.16 µM) of less than 0.949 nM and an IC50 (second compound 10 µM) of less than 0.949 nM. It also gave a viability, T/C (second compound 0.0316 µM, first compound 0.000949 µM) of 95.2%, a viability, T/C (second compound 0.0316 µM, first compound 0.003 µM) of 94.2% and a viability, T/C (second compound 0.0316 µM, first compound 0.00949 µM) of 108%. It also gave a viability, T/C (second compound 0.0316 µM, first compound 0.03 µM) of 98.6%, a viability, T/C (second compound 0.0316 µM, first compound 0.0949 µM) of 76.4% and a viability, T/C (second compound 0.0316 µM, first compound 0.3 µM) of 80.8%. For the same molecule, the viability, T/C (second compound 0.1 µM, first compound 0.000949 µM) was 93.7%, the viability, T/C (second compound 0.1 µM, first compound 0.003 µM) was 103% and the viability, T/C (second compound 0.1 µM, first compound 0.00949 µM) was 85.4%. It also gave a viability, T/C (second compound 0.1 µM, first compound 0.03 µM) of 102%, a viability, T/C (second compound 0.1 µM, first compound 0.0949 µM) of 71.9% and a viability, T/C (second compound 0.1 µM, first compound 0.3 µM) of 69.7%. It also gave a viability, T/C (second compound 0.316 µM, first compound 0.000949 µM) of 73.1%, a viability, T/C (second compound 0.316 µM, first compound 0.003 µM) of 84.8% and a viability, T/C (second compound 0.316 µM, first compound 0.00949 µM) of 89.9%. For the same molecule, the viability, T/C (second compound 0.316 µM, first compound 0.03 µM) was 63.8%, the viability, T/C (second compound 0.316 µM, first compound 0.0949 µM) was 83.7% and the viability, T/C (second compound 0.316 µM, first compound 0.3 µM) was 60.3%. It also gave a viability, T/C (second compound 1 µM, first compound 0.000949 µM) of 58.6%, a viability, T/C (second compound 1 µM, first compound 0.003 µM) of 50.4% and a viability, T/C (second compound 1 µM, first compound 0.00949 µM) of 69.6%. For the same molecule, the viability, T/C (second compound 1 µM, first compound 0.03 µM) was 66.1%, the viability, T/C (second compound 1 µM, first compound 0.0949 µM) was 56.2% and the viability, T/C (second compound 1 µM, first compound 0.3 µM) was 49.6%. For the same molecule, the viability, T/C (second compound 3.16 µM, first compound 0.000949 µM) was 45.4%, the viability, T/C (second compound 3.16 µM, first compound 0.003 µM) was 47.5% and the viability, T/C (second compound 3.16 µM, first compound 0.00949 µM) was 52.5%. For the same molecule, the viability, T/C (second compound 3.16 µM, first compound 0.03 µM) was 42.2%, the viability, T/C (second compound 3.16 µM, first compound 0.0949 µM) was 51.1% and the viability, T/C (second compound 3.16 µM, first compound 0.3 µM) was 52.2%. The viability, T/C (second compound 10 µM, first compound 0.000949 µM) was 42.5%, the viability, T/C (second compound 10 µM, first compound 0.003 µM) was 41.9% and the viability, T/C (second compound 10 µM, first compound 0.00949 µM) was 38.4%. It also gave a viability, T/C (second compound 10 µM, first compound 0.03 µM) of 40.9%, a viability, T/C (second compound 10 µM, first compound 0.0949 µM) of 51.4% and a viability, T/C (second compound 10 µM, first compound 0.3 µM) of 32.9%.

Molecule `CC(Nc1ccc2c(c1)OCCn1cc(N3C(=O)OCC3C(F)F)nc1-2)C(N)=O` (stereo not drawn) + CNC(=O)c1ccc(Nc2nc(OC3CCCC3)c3c(-c4ccc5nc(C)oc5c4)c[nH]c3n2)c(OC)c1 has an IC50 (second compound 0.0316 µM) greater than 10000 nM, an IC50 (second compound 0.1 µM) greater than 10000 nM and an IC50 (second compound 0.316 µM) greater than 10000 nM. The IC50 (second compound 1 µM) was 73.3 nM, the IC50 (second compound 3.16 µM) was less than 31.6 nM and the IC50 (second compound 10 µM) was less than 31.6 nM. The viability, T/C [1] was 105%, the viability, T/C [2] was 82.3% and the viability, T/C [3] was 83.9%. For the same molecule, the viability, T/C [4] was 85.5%, the viability, T/C (second compound 0.0316 µM, first compound 3.16 µM) was 65.4% and the viability, T/C (second compound 0.0316 µM, first compound 10 µM) was 67.3%. The viability, T/C [5] was 88%, the viability, T/C [6] was 78.4% and the viability, T/C [7] was 66.1%. For the same molecule, the viability, T/C [8] was 70.3%, the viability, T/C (second compound 0.1 µM, first compound 3.16 µM) was 55.7% and the viability, T/C (second compound 0.1 µM, first compound 10 µM) was 58.2%. The viability, T/C [9] was 92.5%, the viability, T/C [10] was 64.3% and the viability, T/C [11] was 65.5%. For the same molecule, the viability, T/C [12] was 52.4%, the viability, T/C (second compound 0.316 µM, first compound 3.16 µM) was 56.9% and the viability, T/C (second compound 0.316 µM, first compound 10 µM) was 49.7%. It also gave a viability, T/C [13] of 60.6%, a viability, T/C [14] of 45.1% and a viability, T/C [15] of 46.9%. It also gave a viability, T/C [16] of 47.7%, a viability, T/C (second compound 1 µM, first compound 3.16 µM) of 39.7% and a viability, T/C (second compound 1 µM, first compound 10 µM) of 41.9%. It also gave a viability, T/C [17] of 45%, a viability, T/C [18] of 49.8% and a viability, T/C [19] of 32%. The viability, T/C [20] was 33.4%, the viability, T/C (second compound 3.16 µM, first compound 3.16 µM) was 35.4% and the viability, T/C (second compound 3.16 µM, first compound 10 µM) was 25.9%. It also gave a viability, T/C [21] of 38.6%, a viability, T/C [22] of 46.2% and a viability, T/C [23] of 37.7%. The viability, T/C [24] was 27.8%, the viability, T/C (second compound 10 µM, first compound 3.16 µM) was 32.9% and the viability, T/C (second compound 10 µM, first compound 10 µM) was 24.9%.

With `CCN1CCN(Cc2ccc(Nc3ncc(F)c(-c4cc(F)c5nc(C)n(C(C)C)c5c4)n3)nc2)CC1` + CNC(=O)c1ccc(Nc2nc(OC3CCCC3)c3c(-c4ccc5nc(C)oc5c4)c[nH]c3n2)c(OC)c1 the IC50 (second compound 0.0316 µM) was greater than 1000 nM, the IC50 (second compound 0.1 µM) was greater than 1000 nM and the IC50 (second compound 0.316 µM) was greater than 1000 nM. For the same molecule, the IC50 (second compound 1 µM) was greater than 1000 nM, the IC50 (second compound 3.16 µM) was 577 nM and the IC50 (second compound 10 µM) was greater than 1000 nM. It also gave a viability, T/C [25] of 103%, a viability, T/C [26] of 89.3% and a viability, T/C [1] of 86.9%. The viability, T/C [2] was 82.1%, the viability, T/C [3] was 79.3% and the viability, T/C [4] was 81.8%. For the same molecule, the viability, T/C [27] was 103%, the viability, T/C [28] was 115% and the viability, T/C [5] was 95.3%. The viability, T/C [6] was 103%, the viability, T/C [7] was 76.9% and the viability, T/C [8] was 79%. The viability, T/C [29] was 86.3%, the viability, T/C [30] was 94.2% and the viability, T/C [9] was 88.8%. The viability, T/C [10] was 74%, the viability, T/C [11] was 70.7% and the viability, T/C [12] was 67.9%. The viability, T/C [31] was 75.4%, the viability, T/C [32] was 72.4% and the viability, T/C [13] was 64.4%. The viability, T/C [14] was 75.1%, the viability, T/C [15] was 60.6% and the viability, T/C [16] was 53.1%. For the same molecule, the viability, T/C [33] was 65%, the viability, T/C [34] was 64.7% and the viability, T/C [17] was 61.7%. The viability, T/C [18] was 57.4%, the viability, T/C [19] was 60.8% and the viability, T/C [20] was 41.4%. For the same molecule, the viability, T/C [35] was 41.9%, the viability, T/C [36] was 56.5% and the viability, T/C [21] was 60.4%. The viability, T/C [22] was 74.6%, the viability, T/C [23] was 65.2% and the viability, T/C [24] was 37.1%.

Work on `COc1c(OCCCN2CCOCC2)ccc2c3n(c(=NC(=O)c4cnc(N)nc4)nc12)CCN3` + CNC(=O)c1ccc(Nc2nc(OC3CCCC3)c3c(-c4ccc5nc(C)oc5c4)c[nH]c3n2)c(OC)c1 yielded an IC50 (second compound 0.0316 µM) greater than 1000 nM, an IC50 (second compound 0.1 µM) of 80.7 nM and an IC50 (second compound 0.316 µM) of 61.2 nM. For the same molecule, the IC50 (second compound 1 µM) was 10.6 nM, the IC50 (second compound 3.16 µM) was 4.26 nM and the IC50 (second compound 10 µM) was less than 3.16 nM. For the same molecule, the viability, T/C [25] was 94.9%, the viability, T/C [26] was 93.6% and the viability, T/C [1] was 79.5%. It also gave a viability, T/C [2] of 69%, a viability, T/C [3] of 70% and a viability, T/C [4] of 51.2%. For the same molecule, the viability, T/C [27] was 96%, the viability, T/C [28] was 89.5% and the viability, T/C [5] was 56.2%. It also gave a viability, T/C [6] of 58.7%, a viability, T/C [7] of 44.1% and a viability, T/C [8] of 41%. It also gave a viability, T/C [29] of 87.4%, a viability, T/C [30] of 55.1% and a viability, T/C [9] of 59.8%. For the same molecule, the viability, T/C [10] was 52.2%, the viability, T/C [11] was 37.9% and the viability, T/C [12] was 32.2%. For the same molecule, the viability, T/C [31] was 55.9%, the viability, T/C [32] was 56.7% and the viability, T/C [13] was 39.9%. For the same molecule, the viability, T/C [14] was 32.2%, the viability, T/C [15] was 26.3% and the viability, T/C [16] was 20.6%. The viability, T/C [33] was 50.3%, the viability, T/C [34] was 48.3% and the viability, T/C [17] was 34.9%. The viability, T/C [18] was 22.3%, the viability, T/C [19] was 18.4% and the viability, T/C [20] was 14.8%. It also gave a viability, T/C [35] of 43.1%, a viability, T/C [36] of 36.9% and a viability, T/C [21] of 30.3%. The viability, T/C [22] was 21.2%, the viability, T/C [23] was 18% and the viability, T/C [24] was 16.3%.
